From US20240132431A1, “METHOD FOR ALKYLATING ACIDIC FUNCTIONAL GROUP” (Chugai Seiyaku Kabushiki Kaisha, priority 2021, published 2024)
Values belong to the molecule of their own block, whether it stands above or below them.

Target: T1, Bcl-2 protein (Recombinant Human Bcl-2 Protein) (Homo sapiens, UniProt P10415)
T1 construct: purchased Novus NBP2-34889
Assay: Binding evaluation of mixture library compounds to Bcl-2 using AS-MS (affinity selection mass spectrometry)
Conditions: for ASMS ratio (%) n = 1 / ASMS ratio (%) n = 2: ASMS Ratio(%)=(A−C)/B×100; for ASMS ratio (%) n = 1: replicate n = 1; for ASMS ratio (%) n = 2: replicate n = 2
Summary of the method: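 Bcl-2 binding is scored from LC/MS signal retained with protein through gel-filtration spin columns, normalised to unfiltered and protein-free controls. Incubation: 20 μM protein, […] per compound, 1 h, 23° C.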

[1] = AS-MS on the mixture of 1200 library compounds
[2] = AS-MS, mixture of 1200 compounds, Bcl-2

T1 sequence (P10415 whole entry): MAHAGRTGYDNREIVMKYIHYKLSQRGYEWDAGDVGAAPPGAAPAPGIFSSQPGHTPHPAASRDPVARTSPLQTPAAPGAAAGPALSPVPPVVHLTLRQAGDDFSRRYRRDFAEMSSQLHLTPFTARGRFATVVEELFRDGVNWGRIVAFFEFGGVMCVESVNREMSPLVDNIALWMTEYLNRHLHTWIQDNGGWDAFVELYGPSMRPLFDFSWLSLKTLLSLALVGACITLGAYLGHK

ASMS ratio (%) n = 1 [1]: 4.7%
ASMS ratio (%) n = 2 [1]: 0.8%
Molecule: CCOc1cncc(-c2ccc(C(=O)N3CCN(c4ccc(C(=O)Nc5ccc(OC)cc5)nn4)CC3)cc2F)c1 [B1O006-01, 6-[4-[4-(5-Ethoxypyridin-3-yl)-3-fluorobenzoyl]piperazin-1-yl]-N-(4-methoxyphenyl)pyridazine-3-carboxamide]

ASMS ratio (%) n = 1 [1]: 0.8%
ASMS ratio (%) n = 2 [1]: −0.9%
Molecule: CCOc1cncc(-c2ccccc2CCC(=O)N2CCN(c3ccc(C(=O)Nc4ccc(OC)cc4)nn3)CC2)c1 [B1O012-01, 6-[4-[3-[2-(5-Ethoxypyridin-3-yl)phenyl]propanoyl]piperazin-1-yl]-N-(4-methoxyphenyl)pyridazine-3-carboxamide]

ASMS ratio (%) (n = 1): 0.0%
ASMS ratio (%) (n = 2): 0.0%
Molecule: CCOc1cncc(-c2ccc(CN3CCN(c4ccc(C(=O)NS(C)(=O)=O)cc4)CC3)cc2F)c1 [B2I052-01, 4-[4-[[4-(5-Ethoxypyridin-3-yl)-3-fluorophenyl]methyl]piperazin-1-yl]-N-methylsulfonylbenzamide]

Molecule: 6-[4-[4-(5-Ethoxypyridin-3-yl)-3-methylbenzoyl]piperazin-1-yl]-N-propylpyridazine-3-carboxamide [B1M037-01]
ASMS ratio (%) n = 1 [2]: −1.5%
ASMS ratio (%) n = 2 [2]: 2.3%

ASMS ratio (%) n = 1 (AS-MS, mixture library, Bcl-2): 1.5%
ASMS ratio (%) n = 2 (AS-MS, mixture library, Bcl-2): 1.9%
Molecule: CCOc1cncc(-c2ccccc2CCC(=O)N2CCN(c3ccc(C(=O)NS(=O)(=O)CC45CC6CC(CC(C6)C4)C5)nn3)CC2)c1 [B2A012-01, N-(1-Adamantylmethylsulfonyl)-6-[4-[3-[2-(5-ethoxypyridin-3-yl)phenyl]propanoyl]piperazin-1-yl]pyridazine-3-carboxamide]

Molecule: CCOc1cccc(-c2csc(CN3CCN(c4ccc(C(=O)Nc5ccc(OC)cc5)cc4)CC3)c2)c1 [B1O067-01]
ASMS ratio (%) n = 1 [1]: 0.0%
ASMS ratio (%) n = 2 [1]: 0.0%

ASMS ratio (%) (n = 1): 0.0%
ASMS ratio (%) (n = 2): 0.0%
Molecule: CCOc1cccc(-c2cc(CN3CCN(c4ccc(C(=O)NS(=O)(=O)CCC(F)(F)F)nn4)CC3)cc(OC(C)C)c2)c1 [B2N083-01, 6-[4-[[3-(3-Ethoxyphenyl)-5-propan-2-yloxyphenyl]methyl]piperazin-1-yl]-N-(3,3,3-trifluoropropylsulfonyl)pyridazine-3-carboxamide]

ASMS ratio (%) (n = 1): 15.8%
ASMS ratio (%) (n = 2): 13.5%
Molecule: CCOc1cncc(-c2ccccc2CCC(=O)N2CCN(c3ccc(C(=O)NS(=O)(=O)c4ccc(NCCSc5ccccc5)c(C(F)(F)F)c4)nn3)CC2)c1 [B2R012-01, 6-[4-[3-[2-(5-Ethoxypyridin-3-yl)phenyl]propanoyl]piperazin-1-yl]-N-[4-(2-phenylsulfanylethylamino)-3-(trifluoromethyl)phenyl]sulfonylpyridazine-3-carboxamide]

ASMS ratio (%) n = 1 (AS-MS, mixture library, Bcl-2): 25.0%
ASMS ratio (%) n = 2 (AS-MS, mixture library, Bcl-2): 11.2%
Molecule: CCOc1cccc(-c2ccccc2CN2CCN(c3ccc(C(=O)NS(=O)(=O)c4ccc(NCCSc5ccccc5)c([N+](=O)[O-])c4)nn3)CC2)c1 [B2Q071-01, 6-[4-[[2-(3-Ethoxyphenyl)phenyl]methyl]piperazin-1-yl]-N-[3-nitro-4-(2-phenylsulfanylethylamino)phenyl]sulfonylpyridazine-3-carboxamide]

ASMS ratio (%) n = 1 (AS-MS, mixture library, Bcl-2): 0.0%
ASMS ratio (%) n = 2 (AS-MS, mixture library, Bcl-2): 0.0%
Molecule: CCOc1cncc(-c2ccc(CN3CCN(c4ccc(C(=O)N(CC)CC)nn4)CC3)cc2C)c1 [B4J074-01, 6-[4-[[4-(5-Ethoxypyridin-3-yl)-3-methylphenyl]methyl]piperazin-1-yl]-N,N-diethylpyridazine-3-carboxamide]

ASMS ratio (%) n = 1 (AS-MS, mixture library, Bcl-2): −2.6%
ASMS ratio (%) n = 2 (AS-MS, mixture library, Bcl-2): 3.8%
Molecule: CCOc1cccc(-c2ccc(CN3CCN(c4ccc(C(=O)NS(=O)(=O)CC56CC7CC(CC(C7)C5)C6)nn4)CC3)c3ccccc23)c1 [B2A091-01, N-(1-Adamantylmethylsulfonyl)-6-[4-[[4-(3-ethoxyphenyl)naphthalen-1-yl]methyl]piperazin-1-yl]pyridazine-3-carboxamide]

ASMS ratio (%) n = 1 (AS-MS, mixture library, Bcl-2): 8.8%
ASMS ratio (%) n = 2 (AS-MS, mixture library, Bcl-2): 11.0%
Molecule: CCOc1cccc(C#Cc2ccccc2CN2CCN(c3ccc(C(=O)NS(=O)(=O)c4ccc(NCCSc5ccccc5)c([N+](=O)[O-])c4)cc3)CC2)c1 [B2Q069-01]

Molecule: CCOc1cncc(C#Cc2ccccc2CN2CCN(c3ccc(C(=O)Nc4ccc(OC)cc4)cc3)CC2)c1 [B1O070-01]
ASMS ratio (%) n = 1 [1]: 8.8%
ASMS ratio (%) n = 2 [1]: 2.3%

ASMS ratio (%) (n = 1): 0.0%
ASMS ratio (%) (n = 2): 0.0%
Molecule: CCOc1cncc(-c2ccc(CN3CCN(c4ccc(C(=O)NS(=O)(=O)CCC(F)(F)F)cc4)CC3)c3ccccc23)c1 [B2N066-01, 4-[4-[[4-(5-Ethoxypyridin-3-yl)naphthalen-1-yl]methyl]piperazin-1-yl]-N-(3,3,3-trifluoropropylsulfonyl)benzamide]

ASMS ratio (%) n = 1 [1]: 4.5%
ASMS ratio (%) n = 2 [1]: 2.0%
Molecule: CCOc1cccc(-c2ccccc2CCC(=O)N2CCN(c3ccc(C(=O)N(C)CC45CC6CC(CC(C6)C4)C5)nn3)CC2)c1 [B3A011-01, N-(1-Adamantylmethyl)-6-[4-[3-[2-(3-ethoxyphenyl)phenyl]propanoyl]piperazin-1-yl]-N-methylpyridazine-3-carboxamide]

ASMS ratio (%) (n = 1): 0.0%
ASMS ratio (%) (n = 2): 0.0%
Molecule: CCOc1cncc(C#Cc2ccccc2C(=O)N2CCN(c3ccc(C(=O)NS(=O)(=O)C(C)(C)C)nn3)CC2)c1 [B2L008-01, N-tert-Butylsulfonyl-6-[4-[2-[2-(5-ethoxypyridin-3-yl)ethynyl]benzoyl]piperazin-1-yl]pyridazine-3-carboxamide]

ASMS ratio (%) n = 1 (AS-MS, mixture library, Bcl-2): 0.0%
ASMS ratio (%) n = 2 (AS-MS, mixture library, Bcl-2): 2.8%
Molecule: CCOc1cccc(-c2cc(OC)c(CN3CCN(c4ccc(C(=O)N(CC)CC)nn4)CC3)c(OC)c2)c1 [B4J085-01, 6-[4-[[4-(3-Ethoxyphenyl)-2,6-dimethoxyphenyl]methyl]piperazin-1-yl]-N,N-diethylpyridazine-3-carboxamide]

ASMS ratio (%) n = 1 (AS-MS, mixture library, Bcl-2): 6.5%
ASMS ratio (%) n = 2 (AS-MS, mixture library, Bcl-2): −2.9%
Molecule: CCOc1cccc(-c2ccccc2CN2CCN(c3ccc(C(=O)NS(=O)(=O)CC45CC6CC(CC(C6)C4)C5)cc3)CC2)c1 [B2A045-01, N-(1-Adamantylmethylsulfonyl)-4-[4-[[2-(3-ethoxyphenyl)phenyl]methyl]piperazin-1-yl]benzamide]

ASMS ratio (%) n = 1 [1]: 8.6%
ASMS ratio (%) n = 2 [1]: −0.5%
Molecule: CCOc1cncc(C#Cc2cc(C(=O)N3CCN(c4ccc(C(=O)Nc5ccc(OC)cc5)nn4)CC3)cc(C(F)(F)F)c2)c1 [B1O020-01, 6-[4-[3-[2-(5-Ethoxypyridin-3-yl)ethynyl]-5-(trifluoromethyl)benzoyl]piperazin-1-yl]-N-(4-methoxyphenyl)pyridazine-3-carboxamide]

ASMS ratio (%) (n = 1): 9.1%
ASMS ratio (%) (n = 2): −6.0%
Molecule: CCOc1cccc(-c2cc(CN3CCN(c4ccc(C(=O)NS(=O)(=O)c5ccc(NCCSc6ccccc6)c(C(F)(F)F)c5)cc4)CC3)cc(C(F)(F)F)c2)c1 [B2R061-01, 4-[4-[[3-(3-Ethoxyphenyl)-5-(trifluoromethyl)phenyl]methyl]piperazin-1-yl]-N-[4-(2-phenylsulfanylethylamino)-3-(trifluoromethyl)phenyl]sulfonylbenzamide]

ASMS ratio (%) n = 1 [2]: 0.0%
ASMS ratio (%) n = 2 [2]: 0.0%
Molecule: CCOc1cncc(-c2ccc(CN3CCN(c4ccc(C(=O)NCC(F)(F)F)nn4)CC3)c(OC)c2)c1 [B1K080-01, 6-[4-[[4-(5-Ethoxypyridin-3-yl)-2-methoxyphenyl]methyl]piperazin-1-yl]-N-(2,2,2-trifluoroethyl)pyridazine-3-carboxamide]

Molecule: CCOc1cncc(-c2cc(CN3CCN(c4ccc(C(=O)NS(=O)(=O)C(C)(C)C)cc4)CC3)cc(OCC)c2)c1 [B2L056-01]
ASMS ratio (%) (n = 1): 0.0%
ASMS ratio (%) (n = 2): 0.0%

ASMS ratio (%) n = 1 (AS-MS, mixture library, Bcl-2): 0.0%
ASMS ratio (%) n = 2 (AS-MS, mixture library, Bcl-2): 0.0%
Molecule: CCOc1cncc(-c2cnn(-c3cc(C(=O)N4CCN(c5ccc(C(=O)NS(C)(=O)=O)nn5)CC4)cc(C(F)(F)F)c3)c2)c1 [B2I022-01, 6-[4-[3-[4-(5-Ethoxypyridin-3-yl)pyrazol-1-yl]-5-(trifluoromethyl)benzoyl]piperazin-1-yl]-N-methylsulfonylpyridazine-3-carboxamide]

Molecule: CCOc1cncc(C#Cc2cc(C(=O)N3CCN(c4ccc(C(=O)N(CC)CC)cc4)CC3)cc(C(F)(F)F)c2)c1 [B4J042-01, 4-[4-[3-[2-(5-Ethoxypyridin-3-yl)ethynyl]-5-(trifluoromethyl)benzoyl]piperazin-1-yl]-N,N-diethylbenzamide]
ASMS ratio (%) n = 1 [1]: 1.0%
ASMS ratio (%) n = 2 [1]: 0.0%

ASMS ratio (%) n = 1 [2]: −5.3%
ASMS ratio (%) n = 2 [2]: 0.0%
Molecule: CCOc1cccc(-c2csc(CN3CCN(c4ccc(C(=O)NCC56CC7CC(CC(C7)C5)C6)nn4)CC3)c2)c1 [B1A093-01, N-(1-Adamantylmethyl)-6-[4-[[4-(3-ethoxyphenyl)thiophen-2-yl]methyl]piperazin-1-yl]pyridazine-3-carboxamide]

ASMS ratio (%) n = 1 (AS-MS, mixture library, Bcl-2): 22.8%
ASMS ratio (%) n = 2 (AS-MS, mixture library, Bcl-2): 13.9%
Molecule: CCOc1cncc(-c2ccc(CN3CCN(c4ccc(C(=O)NS(=O)(=O)c5ccc(NCCSc6ccccc6)c([N+](=O)[O-])c5)cc4)CC3)cc2F)c1 [B2Q052-01, 4-[4-[[4-(5-Ethoxypyridin-3-yl)-3-fluorophenyl]methyl]piperazin-1-yl]-N-[3-nitro-4-(2-phenylsulfanylethylamino)phenyl]sulfonylbenzamide]

ASMS ratio (%) n = 1 [1]: 0.0%
ASMS ratio (%) n = 2 [1]: 4.3%
Molecule: CCOc1cccc(-c2ccccc2CCC(=O)N2CCN(c3ccc(C(=O)Nc4ccc(OC)cc4)nn3)CC2)c1 [B1O011-01, 6-[4-[3-[2-(3-Ethoxyphenyl)phenyl]propanoyl]piperazin-1-yl]-N-(4-methoxyphenyl)pyridazine-3-carboxamide]
